Laboratory results reported in patent US9992997B2, “Composition comprising bromadiolone, rodenticide bait, and method for controlling target rodent pests” (priority 2014, dated 2018).
Where two headings read alike, the source gives them in different places.

What was measured:
[1] = Hepatic persistence of Homo-SI/Hetero-SI mixtures in the male rat; assay type: in vivo, male Sprague Dawley rats
Experimental: Hepatic Persistence of the Homo-SI and Hetero-SI Configurational Stereoisomers of Bromadiolone in the Male Rat
The following compositions concentrated in the Homo-SI or Hetero-SI configurational stereoisomers are prepared by one of the chromatography methods described above, in which the molar ratios are as follows: • Homo-SI/Hetero-SI: 80/20; • Homo-SI/Hetero-SI: 4/96.
On D0 16 male laboratory rats (Sprague Dawley rats, Charles River, Saint germain sur l'Arbresle, France) having a body weight of the order of 200 g are tube-fed with a dose of the 80/20 mixture or the 4/96 mixture above in an amount of 3.8 mg of bromadiolone per kilogram of rat. The rats are kept alive by daily subcutaneous injection of a solution of vitamin K. On D+1, D+3, D+5 and D+10, 4 rats are anaesthetised with isoflurane and then sacrificed, and the livers are removed and frozen until analysed.

[2] = Hepatic persistence of Homo-SI/Hetero-SI mixtures in the female rat; assay type: in vivo, female rats
Experimental: Hepatic Persistence of the Homo-SI and Hetero-SI Configurational Stereoisomers of Bromadiolone in the Female Rat
The following compositions concentrated in the Homo-SI or Hetero-SI configurational stereoisomers are prepared by one of the chromatography methods described above, in which the molar ratios are as follows: • Homo-SI/Hetero-SI: 80/20; • Homo-SI/Hetero-SI: 20/80.
The procedure with the female rats is the same as that with the male rats as described above. The mean hepatic contents of the Homo-SI and Hetero-SI isomers of the female rats are analysed by HPLC and are given in Table 4 below.

[3] = tested on: Sprague Dawley rats; test: Multi-feeding administration of composition concentrated in Homo-SI, coagulation time (Quick time); assay type: in vivo; conditions: daily dose of 0.25 mg during 3 consecutive days, male or female rat
Experimental: Administration of a Composition Concentrated in Homo-SI by Multiple Ingestions (“Multi-Feeding”)
A composition of bromadiolone comprising 96% Homo-SI and 4% Hetero-SI is administered daily by tube-feeding during three days (D0, D+1 and D+2) to groups of 3 male or female laboratory rats (Sprague Dawley rats of 200 g) in an amount of: • 0.05 mg of bromadiolone per kilogram of rat, or • 0.1 mg of bromadiolone per kilogram of rat, or • 0.25 mg of bromadiolone per kilogram of rat, or • 0.5 mg of bromadiolone per kilogram of rat, or • 0.75 mg of bromadiolone per kilogram of rat.
On these rats blood samples are taken and on D+3 the coagulation time (Quick time, expressed in seconds) of the plasma is measured by means of the “Neoplastine CI Determination of Prothrombin Time” kit (Diagnostica Stago, Asnière, France) by measurement on a Thrombotimer option 2 plus apparatus (Behnk Electronik, Norderstedt, Germany).
The results obtained are given in FIG. 5, on which the hatched histograms represent the coagulation time of the female rats and the solid histograms represent the coagulation times of the male rats. By way of indication, the normal value for the coagulation time of untreated rats is of the order of 10 to 20 seconds.

[4] = molecular target: T1, Vitamin K Epoxide Reductase Complex 1 (VKORC1) (Rattus norvegicus, UniProt Q6TEK4); test: Inhibition of vitamin K epoxide reductase (VKOR) activity in vitro, rat liver microsomes; assay type: biochemical; conditions: microsomes of livers of rats sensitive to AVK; preparations 96% pure; read-out: inhibition constants (Ki) of VKOR activity
T1 construct: catalysed by microsomes of the livers of rats sensitive to anti-vitamin K (AVK) compounds; from tissue; host or cells: rat liver microsomes
T1 sequence (Q6TEK4 1-161): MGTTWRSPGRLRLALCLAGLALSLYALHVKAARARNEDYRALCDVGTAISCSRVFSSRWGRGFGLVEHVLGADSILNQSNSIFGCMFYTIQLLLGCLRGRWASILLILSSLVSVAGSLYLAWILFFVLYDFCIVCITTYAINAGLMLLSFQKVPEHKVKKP
Experimental: Inhibition of Vitamin K Epoxide Reductase Complex 1 (VKORC1) In Vitro by the Homostereoisomer and by the Heterostereoisomer of Bromadiolone
The inhibitory power of two preparations concentrated respectively in the homostereoisomer (Homo-SI) and heterostereoisomer (Hetero-SI) of bromadiolone was evaluated utilising measurement of the activity of vitamin K epoxide reductase (VKOR) catalysed by microsomes of the livers of rats sensitive to anti-vitamin K (AVK) compounds. The configurational stereoisomers of bromadiolone are partially purified by HPLC chromatography over a gradient of composition (A/B) as described in Table 1 above. The preparation concentrated in Homo-SI is made up of 96% Homo-SI and 4% Hetero-SI. The preparation concentrated in Hetero-SI is made up of 96% Hetero-SI and 4% Homo-SI. […] The inhibitory power on the toxicological target of each of the two isomers is therefore similar.

[5] = Hepatic persistence in the rat after single tube-feeding of Homo-SI or Hetero-SI; assay type: in vivo, Sprague Dawley rats
Experimental: Hepatic Persistence of the Homostereoisomer (Homo-SI) and the Heterostereoisomer (Hetero-SI) of Bromadiolone in the Rat
On D0 laboratory rats (Sprague Dawley rats, Charles River, Saint germain sur l'Arbresle, France) having a body weight of the order of 200 g are tube-fed with a solution of Homo-SI in a mixture of oil/DMSO or with a solution of Hetero-SI in an identical mixture of oil/DMSO in an amount of 3.0 mg of bromadiolone per kilogram of rat. The rats are kept alive by daily subcutaneous injection of a solution of vitamin K in an amount of 0.1 U per rat. On D+1, D+3, D+7, D+14 and D+21 4 rats are anaesthetised with isoflurane and then sacrificed, and the livers are removed and frozen until analysed. The course with respect to time of the mean hepatic contents of the configurational stereoisomers “Homo-SI” (▪) and “Hetero-SI” (◯) are analysed by HPLC, given in Table 2 below and shown in FIG. 4 (the symbol (▪) represents Homo-SI and the symbol (◯) represents Hetero-SI).

[6] = D + 1, 3.0 mg/kg tube-fed on D0, 3 mg/kg
[7] = D + 3, 3.0 mg/kg tube-fed on D0, 3 mg/kg
[8] = D + 7, 3.0 mg/kg tube-fed on D0, 3 mg/kg
[9] = D + 14, 3.0 mg/kg tube-fed on D0, 3 mg/kg

SMILES | Hepatic content of total bromadiolone ([1]; 3.8 mg/kg, D + 1, 3.8 mg/kg) [µg/g] | Hepatic content of total bromadiolone ([1]; 3.8 mg/kg, D + 3, 3.8 mg/kg) [µg/g] | Hepatic content of total bromadiolone ([1]; 3.8 mg/kg, D + 5, 3.8 mg/kg) [µg/g] | Hepatic content of total bromadiolone ([2]; D + 9) [µg/g] | Ki [4] [nM] | Hepatic content [5, 6] [µg/g] | Hepatic content [5, 7] [µg/g] | Hepatic content [5, 8] [µg/g] | Hepatic content [5, 9] [µg/g] | further results
O=c1oc2ccccc2c(O)c1C(CC(O)c1ccc(-c2ccc(Br)cc2)cc1)c1ccccc1 (stereo not shown) [Mixture 80/20] | 7.85 ± 0.51 | 3.49 ± 0.29 | 2.15 ± 0.90 | 2.47 |  |  |  |  |  | Hepatic content of total bromadiolone ([1]; 3.8 mg/kg, D + 10, 3.8 mg/kg): 1.33 ± 0.14 µg/g; hepatic persistence (comparison with Hetero-SI or 4/96 mixture) ([1]; listed as 80/20 mixture): less persistent; concentration at 1 day ([1]; male, Sprague Dawley, rat, liver, oral, 3.8 mg/kg, D + 1, read-out: Hepatic content of total bromadiolone): 7850 ng/g; Hepatic content of total bromadiolone ([2]; D + 1): 25.39 µg/g; Hepatic content of total bromadiolone ([2]; D + 3): 12.6 µg/g
O=c1oc2ccccc2c(O)c1C(CC(O)c1ccc(-c2ccc(Br)cc2)cc1)c1ccccc1 (stereo not shown) [Mixture 20/80, reference compound] |  |  |  | 7.18 |  |  |  |  |  | concentration at 1 day ([2]; female, Sprague Dawley, rat, liver, oral, 3.8 mg/kg, D + 1, read-out: Hepatic content of total bromadiolone): 32500 ng/g; concentration at 3 day ([2]; female, Sprague Dawley, rat, liver, oral, 3.8 mg/kg, D + 3, read-out: Hepatic content of total bromadiolone): 24200 ng/g; concentration at 5 day ([2]; female, Sprague Dawley, rat, liver, oral, 3.8 mg/kg, D + 5, read-out: Hepatic content of total bromadiolone): 16400 ng/g
O=c1oc2ccccc2c(O)c1C(CC(O)c1ccc(-c2ccc(Br)cc2)cc1)c1ccccc1 (stereo not shown) [96/4] |  |  |  |  |  |  |  |  |  | effect of repeated ingestion (anticoagulant effect, haemorrhage, death) [3]: sufficient to obtain an anticoagulant effect, a haemorrhage in the rat (male or female) and its death
O=c1oc2ccccc2c(O)c1C(CC(O)c1ccc(-c2ccc(Br)cc2)cc1)c1ccccc1 (stereo not shown) [Mixture 4/96, reference compound] | 14.96 ± 2.0 | 10.08 ± 3.3 | 9.99 ± 1.0 |  |  |  |  |  |  | Hepatic content of total bromadiolone ([1]; 3.8 mg/kg, D + 1, listed as 4/96 mixture, 3.8 mg/kg): 14.96 µg/g; concentration at 10 day ([1]; male, Sprague Dawley, rat, liver, oral, 3.8 mg/kg, D + 10, read-out: Hepatic content of total bromadiolone): 2390 ng/g
O=c1oc2ccccc2c(O)c1C(CC(O)c1ccc(-c2ccc(Br)cc2)cc1)c1ccccc1 (stereo not shown) [Hetero-SI, reference compound] |  |  |  |  | ~50 | 18.62 ± 2.22 | 14.70 ± 1.06 | 5.20 ± 0.75 | 2.67 ± 1.07 | Hepatic content ([5]; D + 21, 3.0 mg/kg tube-fed on D0, 3 mg/kg): 0.99 ± 0.07 µg/g
O=c1oc2ccccc2c(O)c1C(CC(O)c1ccc(-c2ccc(Br)cc2)cc1)c1ccccc1 (stereo not shown) [Homo-SI, 3-[3-(4′-bromo-[1,1′-biphenyl]-4-yl)-3-hydroxy-1-phenylpropyl]-4-hydroxy-2H-1-benzopyran-2-one] |  |  |  |  | ~30 | 8.27 ± 2.72 | 2.34 ± 0.43 | 1.57 ± 0.21 | 0.99 ± 0.06 | concentration at 21 day ([5]; Sprague Dawley, rat, liver, oral, 3 mg/kg, D + 21, 3.0 mg/kg tube-fed on D0, read-out: Hepatic content): 920 ± 80 ng/g; hepatic persistence compared with Hetero-SI ([5]; rat, equal initial dose): significantly lower; hepatic persistence (comparison with Hetero-SI or 4/96 mixture) [1]: significantly lower; hepatic persistence compared with Hetero-SI [2]: significantly lower
